Data as given in ChEMBL document CHEMBL2157945, “Identification of pyrimidine derivatives as hSMG-1 inhibitors” (Bioorg Med Chem Lett, 2012).
Activity calls are given as the source filed them. The calls are words filed in the database; no cut-off is given here.

Experiments:
Homo sapiens = organism: Homo sapiens; experiment: Selectivity ratio of IC50 for mTOR to IC50 for human recombinant SMG1
[1] = target: T1, Serine/threonine-protein kinase mTOR (Homo sapiens, UniProt P42345); experiment: Inhibition of mTOR
[2] = target: T2, Serine/threonine-protein kinase SMG1 (Homo sapiens, UniProt Q96Q15); experiment: Inhibition of human recombinant SMG1 expressed in HEK293 cells using GST-tagged p53 as substrate after 1 hr by DELFIA assay
[3] = target: Cyclin-dependent kinase 2 (Homo sapiens, UniProt P24941); experiment: Inhibition of CDK2
[4] = target: Cyclin-dependent kinase 1 (Homo sapiens, UniProt P06493); experiment: Inhibition of CDK1
[5] = target: Phosphatidylinositol 4,5-bisphosphate 3-kinase catalytic subunit alpha isoform (Homo sapiens, UniProt P42336); experiment: Inhibition of PI3Kalpha using diC8-tagged PIP2 as substrate after 30 to 60 mins by TAMRA-based fluorescence polarization assay
[6] = target: Phosphatidylinositol 4,5-bisphosphate 3-kinase catalytic subunit gamma isoform (Homo sapiens, UniProt P48736); experiment: Inhibition of PI3Kgamma using diC8-tagged PIP2 as substrate after 30 to 60 mins by TAMRA-based fluorescence polarization assay
[7] = target: T2, Serine/threonine-protein kinase SMG1; experiment: Inhibition of SMG1 in human MDA-MB-361 cells assessed as inhibition of UPF1 phosphorylation at 1 uM after 6 hrs by immunostaining analysis; format: cell-based
[8] = target: T2, Serine/threonine-protein kinase SMG1; experiment: Inhibition of SMG1 in human MDA-MB-361 cells assessed as inhibition of UPF1 phosphorylation at 0.3 uM after 6 hrs by immunostaining analysis; format: cell-based
[9] = target: Glycogen synthase kinase-3 beta (Homo sapiens, UniProt P49841); experiment: Inhibition of GSK3beta
[10] = target: T1, Serine/threonine-protein kinase mTOR; experiment: Inhibition of mTOR in human MDA-MB-361 cells assessed as inhibition of p70S6K phosphorylation at 0.3 to 3 uM after 6 hrs by immunostaining analysis; format: cell-based
MDA-MB-468 = experiment: Cytotoxicity against human MDA-MB-468 cells; format: functional, cell-based
MDA-MB-361 = experiment: Inhibition of PI3K in human MDA-MB-361 cells assessed as inhibition of AKT phosphorylation at 0.3 to 3 uM after 6 hrs by immunostaining analysis; format: cell-based
[11] = target: Glycogen synthase kinase-3 alpha (Homo sapiens, UniProt P49840); experiment: Inhibition of GSK3alpha
[12] = target: T2, Serine/threonine-protein kinase SMG1; experiment: Inhibition of SMG1 in human MDA-MB-361 cells assessed as inhibition of UPF1 phosphorylation after 6 hrs by immunostaining analysis; format: cell-based
[13] = target: T2, Serine/threonine-protein kinase SMG1; experiment: Inhibition of SMG1 in human MDA-MB-361 cells assessed as inhibition of UPF1 phosphorylation up to 3 uM after 6 hrs by immunostaining analysis; format: cell-based

Sequence of Phosphatidylinositol 4,5-bisphosphate 3-kinase catalytic subunit gamma isoform (P48736 whole entry, canonical isoform): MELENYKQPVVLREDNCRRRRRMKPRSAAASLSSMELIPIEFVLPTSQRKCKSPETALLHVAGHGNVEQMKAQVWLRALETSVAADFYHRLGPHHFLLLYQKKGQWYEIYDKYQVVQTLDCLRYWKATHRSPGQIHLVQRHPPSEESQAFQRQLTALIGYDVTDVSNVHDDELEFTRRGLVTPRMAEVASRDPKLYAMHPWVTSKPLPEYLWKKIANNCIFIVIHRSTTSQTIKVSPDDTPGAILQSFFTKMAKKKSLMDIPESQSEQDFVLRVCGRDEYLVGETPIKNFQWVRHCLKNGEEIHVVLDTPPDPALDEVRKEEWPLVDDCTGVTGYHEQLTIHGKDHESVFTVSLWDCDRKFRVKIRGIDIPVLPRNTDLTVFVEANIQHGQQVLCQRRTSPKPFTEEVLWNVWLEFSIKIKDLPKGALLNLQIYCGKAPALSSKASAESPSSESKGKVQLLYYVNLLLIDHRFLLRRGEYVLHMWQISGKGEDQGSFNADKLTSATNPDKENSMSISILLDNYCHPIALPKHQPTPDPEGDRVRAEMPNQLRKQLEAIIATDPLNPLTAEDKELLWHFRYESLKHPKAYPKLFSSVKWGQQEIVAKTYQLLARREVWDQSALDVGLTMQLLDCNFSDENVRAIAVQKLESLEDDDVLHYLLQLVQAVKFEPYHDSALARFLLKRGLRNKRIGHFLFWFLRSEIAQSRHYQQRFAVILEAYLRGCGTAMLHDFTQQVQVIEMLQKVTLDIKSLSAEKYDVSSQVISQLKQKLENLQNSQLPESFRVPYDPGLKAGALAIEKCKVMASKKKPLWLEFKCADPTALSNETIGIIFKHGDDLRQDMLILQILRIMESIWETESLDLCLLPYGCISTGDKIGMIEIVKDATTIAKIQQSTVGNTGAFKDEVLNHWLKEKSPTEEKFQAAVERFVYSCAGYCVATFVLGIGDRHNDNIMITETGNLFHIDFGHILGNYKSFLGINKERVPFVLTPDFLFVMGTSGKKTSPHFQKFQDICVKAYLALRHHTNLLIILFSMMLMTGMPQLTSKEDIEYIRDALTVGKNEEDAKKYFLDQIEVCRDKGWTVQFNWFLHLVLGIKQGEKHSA
Sequence of Phosphatidylinositol 4,5-bisphosphate 3-kinase catalytic subunit alpha isoform (P42336 whole entry, canonical isoform): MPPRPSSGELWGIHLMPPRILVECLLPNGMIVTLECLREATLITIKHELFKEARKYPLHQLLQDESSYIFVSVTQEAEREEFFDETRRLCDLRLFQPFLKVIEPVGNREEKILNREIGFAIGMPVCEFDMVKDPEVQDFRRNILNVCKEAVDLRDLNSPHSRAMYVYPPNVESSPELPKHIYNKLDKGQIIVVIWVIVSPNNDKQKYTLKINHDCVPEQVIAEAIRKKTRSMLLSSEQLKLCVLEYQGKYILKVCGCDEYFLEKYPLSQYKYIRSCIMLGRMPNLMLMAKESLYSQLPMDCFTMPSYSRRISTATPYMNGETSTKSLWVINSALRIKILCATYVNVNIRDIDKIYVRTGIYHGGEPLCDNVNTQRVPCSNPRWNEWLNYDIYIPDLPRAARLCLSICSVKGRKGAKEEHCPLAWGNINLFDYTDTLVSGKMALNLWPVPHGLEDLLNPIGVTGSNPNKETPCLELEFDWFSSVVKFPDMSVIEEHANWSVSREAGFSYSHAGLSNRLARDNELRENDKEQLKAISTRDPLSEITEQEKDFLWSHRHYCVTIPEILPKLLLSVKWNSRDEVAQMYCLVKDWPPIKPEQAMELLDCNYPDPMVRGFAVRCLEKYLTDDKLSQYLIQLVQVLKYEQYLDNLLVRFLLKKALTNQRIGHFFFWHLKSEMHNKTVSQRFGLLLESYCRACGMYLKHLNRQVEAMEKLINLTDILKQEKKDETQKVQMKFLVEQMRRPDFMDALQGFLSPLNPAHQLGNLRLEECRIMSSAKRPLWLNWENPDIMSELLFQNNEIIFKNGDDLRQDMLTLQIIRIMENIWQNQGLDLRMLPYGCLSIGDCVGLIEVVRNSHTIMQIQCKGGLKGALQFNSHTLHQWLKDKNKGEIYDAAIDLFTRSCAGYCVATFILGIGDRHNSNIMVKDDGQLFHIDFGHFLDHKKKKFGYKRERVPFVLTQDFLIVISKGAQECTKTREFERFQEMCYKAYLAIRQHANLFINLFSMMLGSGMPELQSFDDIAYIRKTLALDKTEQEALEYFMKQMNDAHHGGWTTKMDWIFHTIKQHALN
Sequence of Cyclin-dependent kinase 1 (P06493 whole entry, canonical isoform): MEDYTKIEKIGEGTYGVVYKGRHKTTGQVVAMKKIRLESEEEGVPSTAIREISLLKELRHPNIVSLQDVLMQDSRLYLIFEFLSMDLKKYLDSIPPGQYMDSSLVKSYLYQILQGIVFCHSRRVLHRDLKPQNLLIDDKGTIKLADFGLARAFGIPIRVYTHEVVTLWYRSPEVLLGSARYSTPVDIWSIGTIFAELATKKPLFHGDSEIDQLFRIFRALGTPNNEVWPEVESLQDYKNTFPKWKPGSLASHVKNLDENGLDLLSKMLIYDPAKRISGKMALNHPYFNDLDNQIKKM
Sequence of Glycogen synthase kinase-3 beta (P49841 whole entry): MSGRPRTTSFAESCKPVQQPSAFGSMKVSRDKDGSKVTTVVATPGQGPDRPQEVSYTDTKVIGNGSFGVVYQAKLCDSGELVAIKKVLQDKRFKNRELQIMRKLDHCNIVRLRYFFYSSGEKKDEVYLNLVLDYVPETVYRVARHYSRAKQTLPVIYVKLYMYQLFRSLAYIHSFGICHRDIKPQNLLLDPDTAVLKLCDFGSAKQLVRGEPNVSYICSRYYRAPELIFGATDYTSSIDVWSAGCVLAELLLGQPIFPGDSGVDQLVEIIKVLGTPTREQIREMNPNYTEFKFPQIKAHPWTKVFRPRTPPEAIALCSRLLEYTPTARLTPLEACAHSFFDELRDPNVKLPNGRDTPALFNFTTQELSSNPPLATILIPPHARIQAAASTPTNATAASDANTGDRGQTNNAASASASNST
Sequence of Glycogen synthase kinase-3 alpha (P49840 whole entry): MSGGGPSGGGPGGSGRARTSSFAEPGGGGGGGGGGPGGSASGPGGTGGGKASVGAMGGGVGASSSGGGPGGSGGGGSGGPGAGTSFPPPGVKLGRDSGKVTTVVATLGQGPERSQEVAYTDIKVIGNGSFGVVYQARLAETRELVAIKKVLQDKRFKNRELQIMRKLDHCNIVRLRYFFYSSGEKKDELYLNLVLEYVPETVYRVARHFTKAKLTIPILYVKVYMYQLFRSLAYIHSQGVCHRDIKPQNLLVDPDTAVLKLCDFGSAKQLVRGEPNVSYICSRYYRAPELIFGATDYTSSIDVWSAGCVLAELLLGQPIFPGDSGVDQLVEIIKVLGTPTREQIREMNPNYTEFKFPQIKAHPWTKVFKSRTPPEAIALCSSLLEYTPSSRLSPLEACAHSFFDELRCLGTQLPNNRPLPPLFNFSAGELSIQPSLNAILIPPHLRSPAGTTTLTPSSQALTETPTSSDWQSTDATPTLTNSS

Compound | Ratio IC50 (Homo sapiens) | IC50 [1] | IC50 [2] | IC50 [3] | IC50 [4] | further results
Clc1ccc(Nc2nccc(-c3ccnc(N4CCOCC4)c3)n2)cc1 | > 19 | > 20000 nM | 1000 nM |  |  | 
NS(=O)(=O)c1cccc(Nc2nccc(-c3ccnc(N4CC5CCC(C4)O5)c3)n2)c1 | 33 | 200 nM | 6 nM | 21 nM | 48 nM | 
CCN(CC)c1cc(-c2ccnc(Nc3cccc(S(N)(=O)=O)c3)n2)ccn1 | 37 | 110 nM | 3 nM | < 5.2 nM | 7.4 nM | 
CN1CCN(c2cc(-c3ccnc(Nc4cccc(S(N)(=O)=O)c4)n3)ccn2)CC1 | 10 | 3300 nM | 310 nM |  |  | 
NS(=O)(=O)c1cccc(Nc2nccc(-c3ccnc(N4CCOCC4)c3)n2)c1 | 56 | 610 nM | 11 nM | 19 nM | 55 nM | 
CNC(=O)Nc1ccc(-c2cc(-c3ccnc(Nc4cccc(S(N)(=O)=O)c4)n3)ccn2)cc1 | > 360 | 18 nM | < 0.05 nM | 23 nM | 62 nM | IC50 [5]: 44 nM; IC50 [6]: 91 nM
Cc1cccc(Nc2nccc(-c3ccnc(N4CCOCC4)c3)n2)c1 | > 61 | > 20000 nM | 330 nM | 46 nM | 100 nM | 
CCN(CC)S(=O)(=O)c1cc(Nc2nccc(-c3ccnc(-c4ccc(NC(=O)NC)cc4)c3)n2)ccc1C | 440 | 88 nM | 0.2 nM | 3000 nM | 14000 nM | IC50 [5]: 130 nM; IC50 [6]: 93 nM
CNC(=O)Nc1ccc(-c2cc(-c3ccnc(Nc4ccc(C)c(S(=O)(=O)NC)c4)n3)ccn2)cc1 | > 350 | 18 nM | < 0.05 nM | 110 nM | 230 nM | IC50 [5]: 43 nM; IC50 [6]: 63 nM
CNC(=O)Nc1ccc(-c2cc(-c3ccnc(Nc4cccc(S(=O)(=O)NC)c4)n3)ccn2)cc1 | > 150 | 15 nM | 0.1 nM | 100 nM | 210 nM | IC50 [5]: 80 nM; IC50 [6]: 82 nM
NS(=O)(=O)c1ccc(Nc2nccc(-c3cccc(C(=O)N4CCCCC4)c3)n2)cc1 |  | 890 nM | 450 nM |  |  | 
CNC(=O)Nc1ccc(-c2cc(-c3ccnc(Nc4ccc(C)c(S(N)(=O)=O)c4)n3)ccn2)cc1 | > 320 | 16 nM | < 0.05 nM |  |  | 
Clc1cccc(Nc2nccc(-c3ccnc(N4CCOCC4)c3)n2)c1 | > 71 | > 20000 nM | 280 nM | 8.9 nM | 35 nM | 
CCN(CC)S(=O)(=O)c1cc(Nc2nccc(-c3ccnc(-c4ccc(NC(=O)NC)cc4)c3)n2)ccc1Cl | 455 | 50 nM | 0.11 nM | 7100 nM | 32000 nM | inhibition [7]: Active; inhibition [8]: Active; IC50 [9]: 330 nM; inhibition [10]: inactive; IC50 (MDA-MB-468): 75 nM; IC50 [5]: 92 nM; inhibition (MDA-MB-361): inactive; IC50 [11]: 260 nM; IC50 [6]: 60 nM
FC(F)(F)c1cccc(Nc2nccc(-c3ccnc(N4CCOCC4)c3)n2)c1 | 7 | 1700 nM | 250 nM |  |  | 
CCN(CC)S(=O)(=O)c1cccc(Nc2nccc(-c3ccnc(-c4ccc(NC(=O)NC)cc4)c3)n2)c1 | 125 | 25 nM | 0.2 nM | 560 nM | 3200 nM | IC50 [5]: 78 nM; IC50 [6]: 59 nM
N#Cc1cccc(Nc2nccc(-c3ccnc(N4CCOCC4)c3)n2)c1 | > 50 | > 4000 nM | 80 nM |  |  | 
OCCCNc1cc(-c2ccnc(Nc3cccc(Cl)c3)n2)ccn1 | 8 | 800 nM | 110 nM | < 5.2 nM | < 5.2 nM | 
NS(=O)(=O)c1cccc(Nc2nccc(-c3ccnc(N4CCCCC4)c3)n2)c1 | 47 | 140 nM | 3 nM | 16 nM | 36 nM | inhibition [10]: Active; inhibition (MDA-MB-361): Active; inhibition [12]: Dose-dependent effect
NS(=O)(=O)c1cccc(Nc2nccc(-c3ccnc(NCCCO)c3)n2)c1 | 15 | 320 nM | 22 nM | 6.7 nM | 12 nM | 
CNC(=O)Nc1ccc(-c2cc(-c3ccnc(Nc4ccc(C)c(S(=O)(=O)N(C)C)c4)n3)ccn2)cc1 | > 900 | 45 nM | < 0.05 nM | 460 nM | 1200 nM | IC50 [5]: 61 nM; IC50 [6]: 72 nM
NS(=O)(=O)c1ccc(Nc2nccc(-c3ccnc(N4CCOCC4)c3)n2)cc1 | > 54 | > 20000 nM | 370 nM |  |  | inhibition [13]: inactive
COc1cccc(Nc2nccc(-c3ccnc(N4CCOCC4)c3)n2)c1 | 4 | 4600 nM | 1100 nM |  |  | 
CNC(=O)Nc1ccc(-c2cc(-c3ccnc(Nc4ccc(Cl)c(S(=O)(=O)N(C)C)c4)n3)ccn2)cc1 | > 244 | 12 nM | < 0.05 nM | 520 nM | 1400 nM | IC50 [5]: 33 nM; IC50 [6]: 54 nM
NS(=O)(=O)c1cccc(Nc2nccc(-c3ccnc(N4C5CCC4COC5)c3)n2)c1 | 130 | 3200 nM | 25 nM | 31 nM | 100 nM | 
c1ccc(Nc2nccc(-c3ccnc(N4CCOCC4)c3)n2)cc1 | > 3 | > 4000 nM | 1500 nM |  |  | 
CNC(=O)Nc1ccc(-c2cc(-c3ccnc(Nc4ccc(Cl)c(S(=O)(=O)NC)c4)n3)ccn2)cc1 | > 154 | 7.7 nM | < 0.05 nM | 140 nM | 320 nM | 
